Experimental data from PubChem BioAssay (NCI).
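Step 1: Grow cells in 96-well plates. Step 2: Expose to compound for 48 hours at 5 concentrations. Step 3: Interpolate endpoints linearly; if unreached, use highest concentration. Abbreviation: GI50, concentration required for 50% inhibition of growth. The concentration for full growth arrest is given as TGI.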

What was measured:
Assay in all cases: NCI-60 cell line screen, 48 h
BT-549 breast = test system: BT-549 breast
MDA-MB-435 = test system: MDA-MB-435
SK-OV-3 ovarian = test system: SK-OV-3 ovarian
IGROV1 ovarian = test system: IGROV1 ovarian
786-0 renal = test system: 786-0 renal
UO-31 renal = test system: UO-31 renal
HCT-116 colon = test system: HCT-116 colon
SF-539 CNS = test system: SF-539 CNS
NCI-H23 lung = test system: NCI-H23 lung
SR leukemia = test system: SR leukemia

Row | Structure (SMILES) | TGI (BT-549 breast) | TGI (MDA-MB-435) | TGI (SK-OV-3 ovarian) | TGI (IGROV1 ovarian) | TGI (786-0 renal) | TGI (UO-31 renal) | TGI (HCT-116 colon) | TGI (SF-539 CNS) | TGI (NCI-H23 lung) | TGI (SR leukemia) | GI50 (BT-549 breast) | GI50 (MDA-MB-435) | GI50 (SK-OV-3 ovarian) | GI50 (IGROV1 ovarian) | GI50 (786-0 renal) | GI50 (UO-31 renal) | GI50 (HCT-116 colon) | GI50 (SF-539 CNS) | GI50 (NCI-H23 lung) | GI50 (SR leukemia)
1 | CCn1c(-c2c(Cl)cc(O)cc2Cl)cc2c(Cl)cc(O)cc21 | 15.5 µM | 13 µM | 37.1 µM | 12.9 µM | 24.8 µM | > 100 µM | > 100 µM | 23.2 µM | 39 µM | > 100 µM |  |  |  |  |  |  |  |  |  | 
2 | O=C1/C(=C/c2ccc(F)c(F)c2)CN(C(=O)C(Cl)Cl)C/C1=C\c1ccc(F)c(F)c1 | 0.34 µM | 0.324 µM | 1.78 µM | 0.264 µM | 0.357 µM | 0.238 µM | 0.12 µM | 0.276 µM | 0.428 µM | > 100 µM | 0.0837 µM | 0.142 µM | 0.492 µM | 0.0609 µM | 0.181 µM | 0.0982 µM | 0.0326 µM | 0.094 µM | 0.139 µM | 0.0128 µM
3 | Cc1cc2c(cc1C)[n+](=O)c(C(=O)/C=C/c1ccc3c(c1)OCO3)c(C)n2[O-] | > 100 µM | > 100 µM | 52.2 µM | > 81.5 µM | > 100 µM | > 100 µM | > 100 µM | > 100 µM | > 89.1 µM | > 100 µM |  |  |  |  |  |  |  |  |  | 
4 | CN(C)C[C@H]1CCn2c(c(C3=C(c4cn(C)c5ccccc45)C(=O)NC3=O)c3ccccc32)C1 | 9.53 µM | 7.9 µM | 11.5 µM | 12.2 µM | 9.29 µM | 7.31 µM | 7.27 µM | 7.73 µM | 15 µM | 11.1 µM | 4.83 µM | 3.95 µM | 5.17 µM | 6.11 µM | 4.78 µM | 3.45 µM | 3.47 µM | 4.01 µM | 6.58 µM | 4.26 µM
5 | CCC#CC[C@H](O)C/C=C1/C(=O)C=C[C@@H]1C/C=C\CCCC(=O)OC | 3.04 µM | 5.92 µM | 10.2 µM | 7.84 µM | 2.67 µM | 1.66 µM | 1.1 µM | 3.79 µM | 2.78 µM | 38.2 µM | 1.22 µM | 1.5 µM | 3.21 µM | 1.93 µM | 1.22 µM | 0.864 µM | 0.235 µM | 1.31 µM | 1.02 µM | 0.278 µM
6 | CC(=Nc1ccccc1)C1=C(O)C(Cc2cccc(F)c2)NC1=O (stereo not drawn) | > 100 µM | 0.056 µM | 1.33 µM | > 100 µM | > 100 µM | > 100 µM | > 39.4 µM |  | > 100 µM | > 72.8 µM | 0.173 µM | 0.018 µM | 0.0469 µM | 0.0854 µM | 0.0857 µM | 0.0789 µM | 0.047 µM | 0.0374 µM | 0.101 µM | 0.0239 µM
7 | Nc1ncn(C2OC(COP(=O)(O)O)C(O)C2O)c(=O)n1 (stereo not drawn) | > 100 µM | > 73.6 µM | > 100 µM | > 100 µM | > 100 µM | > 100 µM | > 100 µM | > 100 µM | > 100 µM | > 100 µM |  |  |  |  |  |  |  |  |  | 
8 | O=C1NC(O)c2ccccc2O1 (stereo not drawn) | > 100 µM | > 100 µM | > 100 µM | > 100 µM | > 100 µM | > 100 µM | > 100 µM | > 100 µM | > 100 µM | > 100 µM |  |  |  |  |  |  |  |  |  | 
9 | C=C1C(=O)O[C@H]2[C@H]1CC/C(COC(=O)c1cn(C)c3ccccc13)=C\CC[C@@]1(C)O[C@@H]21 | 1.99 µM | 3.34 µM | 15 µM | 2.58 µM | 2.88 µM | 2.1 µM | 2.24 µM | 2.13 µM | 4.92 µM | 1.17 µM | 0.514 µM | 1.34 µM | 4.33 µM | 0.692 µM | 1.46 µM | 0.775 µM | 1.02 µM | 0.741 µM | 1.93 µM | 0.342 µM
10 | c1cc(CN2CCCNCCNCCCNCC2)ccc1CN1CCCNCCNCCCNCC1 | > 100 µM | > 100 µM | > 100 µM | > 100 µM | > 100 µM | > 100 µM | > 100 µM | > 100 µM | > 100 µM | > 100 µM | > 100 µM | > 100 µM | > 100 µM | > 100 µM | > 100 µM | > 100 µM | > 100 µM | > 100 µM | > 100 µM | > 100 µM
11 | O=P(O)(O)OCC1OC(n2cnc3c(NCc4ccco4)ncnc32)C(O)C1O (stereo not drawn) | 3.85 µM | > 25.7 µM | 8.73 µM |  | > 49.9 µM | > 26.5 µM | 1.85 µM | 12.5 µM | > 70.5 µM | 3.93 µM | 0.575 µM | 2.36 µM | 2.34 µM | 1.39 µM | 3.35 µM | 0.993 µM | 0.41 µM | 2.7 µM | 3.84 µM | 1.11 µM
12 | CCOc1cc(C(=O)O)c2c(ccc3ccc(OC)c(OC)c32)c1OC | > 100 µM | > 100 µM | > 100 µM | > 100 µM | > 100 µM | > 100 µM | > 100 µM |  | > 100 µM | > 100 µM |  |  |  |  |  |  |  |  |  | 
13 | CN(C)C(=S)/N=c1\ssc(=S)n1Cc1cccs1 | > 100 µM | 2.71 µM | > 90 µM | > 100 µM | 52.5 µM | > 100 µM | > 69.6 µM | 15.1 µM | > 100 µM | > 100 µM |  |  |  |  |  |  |  |  |  | 
14 | CCCCC[C@H]1CC=C2C(=O)C=C[C@@H]2CC=CCCCC(=O)O[C@@H](CCCCC)CC=C2C(=O)C=C[C@@H]2CC=CCCCC(=O)O[C@@H](CCCCC)CC=C2C(=O)C=C[C@@H]2CC=CCCCC(=O)O1 | 0.772 µM | 0.526 µM | > 8.75 µM | 1.57 µM | 1.43 µM | 1.63 µM | 0.906 µM | > 8.75 µM | 1.93 µM | 1.34 µM | 0.241 µM | 0.183 µM | 1.62 µM | 0.279 µM | 0.325 µM | 0.457 µM | 0.221 µM | 0.322 µM | 0.3 µM | 0.229 µM
15 | C[C@]12CC[C@@H]3c4ccc(O)cc4CC[C@H]3[C@@H]1CC[C@@H]2NS(=O)(=O)c1cccc(Cl)c1 | 5.25 µM | 8.7 µM | 12.6 µM | 16.8 µM | 6.13 µM | 8.75 µM | 3.11 µM | 3.45 µM | 10.8 µM | 6.6 µM | 2.15 µM | 2.63 µM | 3.79 µM | 4.23 µM | 2.47 µM | 2.01 µM | 1.68 µM | 1.76 µM | 2.72 µM | 2.15 µM
16 | O=C1CSC(c2ccc(-c3nc4ccccc4[nH]3)cc2)=N1 | > 50 µM | > 50 µM | > 50 µM | > 50 µM | > 50 µM | > 50 µM | > 50 µM | 42.1 µM | > 50 µM | > 50 µM | 42.4 µM | 32.5 µM | > 50 µM | 21.9 µM | 42.5 µM | 19.8 µM | 18.6 µM | 12.2 µM | 47.4 µM | 5.7 µM
17 | COc1cc(OC)cc(-c2nc3sccn3c2/C=N/N=C(N)N)c1 | 14 µM | 16.1 µM | 15.5 µM | 26.2 µM | 14.4 µM | > 50 µM |  | 15.7 µM | 15.6 µM | 16.1 µM | 6.87 µM | 8.71 µM | 7.28 µM | 11.6 µM | 7.71 µM | 15.8 µM |  | 8.26 µM | 7.9 µM | 8.64 µM
18 | O=C(O)/C=C/c1ccc[c]([Sb](=[O])([OH])[OH])c1 | > 100 µM | > 100 µM |  | > 100 µM | > 100 µM | > 100 µM | > 100 µM |  | > 100 µM | > 100 µM | > 100 µM | > 100 µM |  | > 100 µM | > 100 µM | > 100 µM | > 100 µM |  | > 100 µM | > 100 µM
19 | CCCCCCCN(CCCCCCC)C(=N)c1ccnc2ccccc12 | 2.74 µM | 3.24 µM | 3.14 µM | 3.37 µM | 2.97 µM | 2.41 µM |  | 3.58 µM | 3.08 µM | 2.96 µM | 1.36 µM | 1.58 µM | 1.64 µM | 1.6 µM | 1.55 µM | 1.09 µM |  | 1.9 µM | 1.54 µM | 1.01 µM
20 | Cc1c(N)nc([C@H](CC(N)=O)NC[C@H](N)C(N)=O)nc1C(=O)N[C@H](C(=O)N[C@H](C)[C@@H](O)CC(=O)N[C@H](C(=O)NC(O[C@@H]1O[C@@H](C)[C@@H](N)[C@@H](O)[C@H]1O)C(O)c1nc(-c2nc(C(=O)NCCCCN)cs2)cs1)[C@@H](C)O)[C@@H](O[C@@H]1O[C@@H](CO)[C@@H](O)[C@H](O)[C@@H]1O[C@H]1O[C@H](CO)[C@@H](O)[C@H](OC(N)=O)[C@@H]1O)c1c[nH]cn1 (stereo partly drawn) | > 50 µM | > 50 µM | > 50 µM | > 50 µM | > 50 µM | > 50 µM | > 50 µM | > 50 µM | > 50 µM |  |  |  |  |  |  |  |  |  |  | 
